Where a name gives a salt, the structure may show the parent alone. Read-outs that look alike come from different tables or passages of the source.

These results are taken from patent publication US8987254B2, “Tetrahydropyrrolothiazine compounds” (Eli Lilly and Company, priority 2013, dated 2015).

The target of one data set is human BACE1(1-460):Fc (Homo sapiens (Human), UniProt P56817). Description: BACE1 FRET Assay. The format is biochemical. To be noted: purified recombinant huBACE1:Fc, FRET substrate, pH 4.6; Mean ± SEM. As to the method: (§1) For in vitro enzymatic and cellular assays, test compounds are prepared in DMSO to make up a 10 mM stock solution. The stock solution is serially diluted in DMSO to obtain a ten-point dilution curve with final compound concentrations ranging from […] to 0.05 nM in a 96-well round-bottom plate before conducting the in vitro enzymatic and whole cell assays.
Human BACE1 (accession number: AF190725) is cloned from total brain cDNA by RT-PCR. The nucleotide sequences corresponding to amino acid sequences #1 to 460 are inserted into the cDNA encoding human IgG1 (Fc) polypeptide (Vassar et al. 1999). This fusion protein of BACE1(1-460) and human Fc, named huBACE1:Fc, is constructed into the pJB02 vector. Human BACE1(1-460):Fc (huBACE1:Fc) is transiently expressed in HEK293 cells. 250 μg cDNA of each construct is mixed with Fugene 6 and added to 1 liter HEK293 cells. Four days after the transfection, conditioned media are harvested for purification.
huBACE1:Fc is purified by Protein A chromatography. The enzyme is stored at −80° C. in small aliquots.
Serial dilutions of test compounds are prepared as described above. Compounds are further diluted 20× in KH2PO4 buffer. […] The content is mixed well on a plate shaker for 10 minutes. Fifteen μL of two hundred pM human BACE1(1-460):Fc (See Vasser, et al., Science, 286, 735-741 (1999)) in the KH2PO4 buffer is added to the plate containing substrate and test compounds to initiate the reaction. The RFU of the mixture at time 0 is recorded at excitation wavelength 355 nm and emission wavelength 460 nm, after brief mixing on a plate shaker. The reaction plate is covered with aluminum foil and kept in a dark humidified oven at room temperature for 16 to 24 h. The RFU at the end of incubation is recorded with the same excitation and emission settings used at time 0. The difference of the RFU at time 0 and the end of incubation is representative of the activity of BACE1 under the compound treatment. RFU differences are plotted versus inhibitor concentration and a curve is fitted with a four-parameter logistic equation to obtain the EC50 and IC50 values. (See Sinha, et al., Nature, 402, 537-540 […]).

In data set [1] the test system is primary cortical neurons from PDAPP transgenic embryonic mice. Description: PDAPP Primary Neuronal Assay (Abeta ELISA). The data set is classed as cell-based. To be noted: Mus musculus, Primary cortical neuron, 24 h. The method, then:
as §1
A confirmatory whole cell assay is also run in primary neuronal cultures generated from PDAPP transgenic embryonic mice. Primary cortical neurons are prepared from Embryonic Day 16 PDAPP embryos and cultured in 96 well plates (15×10^4 cells/well in DMEM/F12 (1:1) plus 10% FBS). After 2 days in vitro, culture media is replaced with serum free DMEM/F12 (1:1) containing B27 supplement and 2 μM (final) of Ara-C (Sigma, C1768). At day 5 in vitro, neurons are incubated at 37° C. for 24 h in the presence/absence of inhibitors (diluted in DMSO) at the desired concentration. At the end of the incubation, conditioned media are analyzed for evidence of beta-secretase activity, for example, by analysis of Abeta peptides. Total Abeta peptides (Abeta 1-x) are measured by a sandwich ELISA, using monoclonal 266 as a capture antibody and biotinylated 3D6 as reporting antibody. Alternatively, Abeta 1-40 and Abeta 1-42 peptides are measured by a sandwich ELISA, using monoclonal 2G3 as a capture antibody for Abeta 1-40, and monoclonal 21F12 as a capture antibody for Abeta 1-42. Both Abeta 1-40 and Abeta 1-42 ELISAs use biotinylated 3D6 as the reporting antibody. The concentration of Abeta released in the conditioned media following the compound treatment corresponds to the activity of BACE1 under such conditions. The 10-point inhibition curve is plotted and fitted with the four-parameter logistic equation to obtain the EC50 and IC50 values for the Abeta-lowering effect.
(In general: ELISA stands for enzyme-linked immunosorbent assay.)

The next data set deals with HEK293Swe cells. Description: HEK293Swe Whole Cell Assay (Abeta ELISA). The note with it: Homo sapiens. The data set is classed as cell-based. As to the method:
as §1
In vitro Abeta reduction assays have been described in the literature (See Dovey, et al., Journal of Neurochemistry, 76, 173-181 (2001); Seubert, et al., Nature, 361, 260 (1993); and Johnson-Wood, et al., Proc. Natl. Acad. Sci. USA, 94, 1550-1555 (1997)).
At the end of the incubation, conditioned media are analyzed for evidence of beta-secretase activity, for example, by analysis of Abeta peptides. Total Abeta peptides (Abeta 1-x) are measured by a sandwich ELISA, using monoclonal 266 as a capture antibody and biotinylated 3D6 as reporting antibody. Alternatively, Abeta 1-40 and Abeta 1-42 peptides are measured by a sandwich ELISA, using monoclonal 2G3 as a capture antibody for Abeta 1-40, and monoclonal 21F12 as a capture antibody for Abeta 1-42. Both Abeta 1-40 and Abeta 1-42 ELISAs use biotinylated 3D6 as the reporting antibody. The concentration of Abeta released in the conditioned media following the compound treatment corresponds to the activity of BACE1 under such conditions. The 10-point inhibition curve is plotted and fitted with the four-parameter logistic equation to obtain the EC50 and IC50 values for the Abeta-lowering effect.

In another data set the test system is PDAPP mice. Description: In Vivo Inhibition of Beta-Secretase (brain Abeta 1-x reduction). Further details: species or system mouse. The note with it: for Abeta 1-x peptide levels reduced in brain cortex / Abeta 1-x peptide levels reduced in brain hippocampus: 3 hours after administration, compared to vehicle-treated mice. From the text: Several animal models, including mouse, guinea pig, dog, and monkey, may be used to screen for inhibition of beta-secretase activity in vivo following compound treatment. Animals used in this invention can be wild type, transgenic, or gene knockout animals. For example, the PDAPP mouse model, prepared as described in Games et al., Nature 373, 523-527 (1995), and other non-transgenic or gene knockout animals are useful to analyze in vivo inhibition of Abeta and sAPPbeta production in the presence of inhibitory compounds. Generally, 2 to 12 month old PDAPP mice, gene knockout mice or non-transgenic animals are administered compound formulated in vehicles, such as corn oil, cyclodextran, phosphate buffers, PHARMASOLVE®, or other suitable vehicles. One to twenty-four hours following the administration of compound, animals are sacrificed, and brains as well as cerebrospinal fluid and plasma are removed for analysis of Abetas, C99, and sAPP fragments. (See May, et al., Journal of Neuroscience, 31, 16507-16516 (2011)).
For standard in vivo pharmacology studies, animals are dosed with various concentrations of compound and compared to a vehicle-treated control group dosed at the same time. For some time course studies, brain tissue, plasma, or cerebrospinal fluid is obtained from selected animals, beginning at time 0 to establish a baseline. Compound or appropriate vehicle is administered to other groups and sacrificed at various times after dosing. Brain tissue, plasma, or cerebrospinal fluid is obtained from selected animals and analyzed for the presence of APP cleavage products, including Abeta peptides, sAPPbeta, and other APP fragments, for example, by specific sandwich ELISA assays. At the end of the test period, animals are sacrificed and brain tissues, plasma, or cerebrospinal fluid are analyzed for the presence of Abeta peptides, C99, and sAPPbeta, as appropriate. Brain tissues of APP transgenic animals may also be analyzed for the amount of beta-amyloid plaques following compound treatment. “Abeta 1-x peptide” as used herein refers to the sum of Abeta species that begin with residue 1 and ending with a C-terminus greater than residue 28. This detects the majority of Abeta species and is often called “total Abeta”.

Setting [2] is: Abeta 1-40, Mean ± SEM, read-out: PDAPP Neuron A-beta (1-40) ELISA IC50.
Setting [3] is: Abeta 1-42, Mean ± SEM, read-out: PDAPP Neuron A-beta (1-42) ELISA IC50.
Setting [4] is: HEK293, Abeta 1-40 in conditioned media, read-out: HEK 293 Swe A-beta (1-40) ELISA IC50.
Where [5] appears, read: HEK293, Abeta 1-42 in conditioned media, read-out: HEK 293 Swe A-beta (1-42) ELISA IC50.

human BACE1(1-460):Fc, sequence (P56817 22-460): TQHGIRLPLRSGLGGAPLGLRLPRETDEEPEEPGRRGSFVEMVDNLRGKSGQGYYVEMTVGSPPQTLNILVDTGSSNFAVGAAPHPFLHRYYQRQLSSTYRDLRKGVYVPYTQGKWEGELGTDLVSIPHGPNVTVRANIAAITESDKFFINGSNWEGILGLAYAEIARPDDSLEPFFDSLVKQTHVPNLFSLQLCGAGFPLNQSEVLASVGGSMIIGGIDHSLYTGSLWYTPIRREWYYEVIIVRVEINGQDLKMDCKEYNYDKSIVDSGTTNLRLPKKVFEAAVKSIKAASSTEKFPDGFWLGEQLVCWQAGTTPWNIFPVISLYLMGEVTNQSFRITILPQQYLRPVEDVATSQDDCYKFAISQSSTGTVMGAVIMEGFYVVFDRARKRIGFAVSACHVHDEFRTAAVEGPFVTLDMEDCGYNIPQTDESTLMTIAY

The term IC50 denotes the midpoint of a concentration-inhibition curve. Regarding `COc1cnc(C(=O)Nc2cccc([C@]34CN(c5ncc(F)cn5)C[C@H]3CSC(N)=N4)c2)cn1` [Example 2, N-{3-[(4aR,7aS)-2-Amino-6-(5-fluoropyrimidin-2-yl)-4a,5,6,7-tetrahydropyrrolo[3,4-d][1,3]thiazin-7a(4H)-yl]phenyl}-5-methoxypyrazine-2-carboxamide hydrochloride], the IC50 at human BACE1(1-460):Fc stood at 482 pM; in data set [1] (setting [2]), 244 pM; in data set [1] (setting [3]) it was 1220 pM; with HEK293Swe cells (setting [4]), 324 pM; with HEK293Swe cells (setting [5]), 289 pM.
On to `Cl.NC1=N[C@@]2(c3cc(NC(=O)c4ccc(F)cn4)ccc3F)CN(c3ncc(F)cn3)C[C@H]2CS1` [Example 3, N-[3-[(4aR,7aS)-2-Amino-6-(5-fluoropyrimidin-2-yl)-4,4a,5,7-tetrahydropyrrolo[3,4-d][1,3]thiazin-7a-yl]-4-fluoro-phenyl]-5-fluoro-pyridine-2-carboxamide hydrochloride], for which the IC50 turned out to be 309 pM in data set [1] (setting [2]), 184 pM in data set [1] (setting [3]), 1260 pM with HEK293Swe cells (setting [4]) and 299 pM in the data set with HEK293Swe cells (setting [5]). Also, the CNS penetration entry with PDAPP mice was “demonstrate CNS penetration”. Besides, the “Abeta 1-x peptide levels reduced in brain cortex” value with PDAPP mice (1 mg/kg oral dose) is recorded as “approximately 34%”; in the data set with PDAPP mice (3 mg/kg oral dose) it was approximately 53%. The results for the “Abeta 1-x peptide levels reduced in brain hippocampus” value in the data set on PDAPP mice (1 mg/kg oral dose) and with PDAPP mice (3 mg/kg oral dose) were “approximately 38%” and approximately 50%, respectively.
Regarding `COc1cnc(C(=O)Nc2ccc(F)c([C@]34CN(c5ncc(F)cn5)C[C@H]3CSC(N)=N4)c2)cn1` [Example 4, N-[3-[(4aR,7aS)-2-Amino-6-(5-fluoropyrimidin-2-yl)-4,4a,5,7-tetrahydropyrrolo[3,4-d][1,3]thiazin-7a-yl]-4-fluoro-phenyl]-5-methoxy-pyrazine-2-carboxamide hydrochloride], the values for the IC50 in data set [1] (setting [2]) and in data set [1] (setting [3]) were 134 pM and 131 pM, respectively.
As for `N#Cc1ccc(C(=O)Nc2cccc([C@]34CN(c5ncc(F)cn5)C[C@H]3CSC(N)=N4)c2)nc1` [Example 5, N-[3-[(4aR,7aS)-2-Amino-6-(5-fluoropyrimidin-2-yl)-4,4a,5,7-tetrahydropyrrolo[3,4-d][1,3]thiazin-7a-yl]phenyl]-5-cyano-pyridine-2-carboxamide hydrochloride], the IC50 at human BACE1(1-460):Fc amounted to 450 pM; in data set [1] (setting [2]) it was 132 pM; in data set [1] (setting [3]) it was 81.3 pM; with HEK293Swe cells (setting [4]), 88.7 pM; in the data set with HEK293Swe cells (setting [5]), 78.5 pM.
Take `NC1=N[C@@]2(c3cccc(NC(=O)c4ncc(F)cc4F)c3)CN(c3ncc(F)cn3)C[C@H]2CS1` [Example 6, N-[3-[(4aR,7aS)-2-Amino-6-(5-fluoropyrimidin-2-yl)-4,4a,5,7-tetrahydropyrrolo[3,4-d][1,3]thiazin-7a-yl]phenyl]-3,5-difluoro-pyridine-2-carboxamide hydrochloride]: the IC50 is 739 pM on human BACE1(1-460):Fc; 279 pM in data set [1] (setting [2]); 308 pM in data set [1] (setting [3]); 220 pM in the data set with HEK293Swe cells (setting [4]); 211 pM in the data set on HEK293Swe cells (setting [5]).
`N#Cc1ccc(C(=O)Nc2ccc(F)c([C@]34CN(c5ncc(F)cn5)C[C@H]3CSC(N)=N4)c2)nc1` [Example 7, N-[3-[(4aR,7aS)-2-Amino-6-(5-fluoropyrimidin-2-yl)-4,4a,5,7-tetrahydropyrrolo[3,4-d][1,3]thiazin-7a-yl]-4-fluoro-phenyl]-5-cyano-pyridine-2-carboxamide hydrochloride]: the IC50 on human BACE1(1-460):Fc was 358 pM; in data set [1] (setting [2]), 87.3 pM; in data set [1] (setting [3]) it was 64.9 pM.
On to `NC1=N[C@@]2(c3cc(NC(=O)c4ncc(F)cc4F)ccc3F)CN(c3ncc(F)cn3)C[C@H]2CS1` [Example 8, N-[3-[(4aR,7aS)-2-Amino-6-(5-fluoropyrimidin-2-yl)-4,4a,5,7-tetrahydropyrrolo[3,4-d][1,3]thiazin-7a-yl]-4-fluoro-phenyl]-3,5-difluoro-pyridine-2-carboxamide hydrochloride], for which the IC50 turned out to be 285 pM in data set [1] (setting [2]) and 290 pM in data set [1] (setting [3]).
